How the values were obtained:
HOP-92 = assay: NCI-60 SRB growth inhibition: HOP-92; assay type: cell-based, human; conditions: HOP-92, Non-small cell lung cancer; 48 hours treatment
OVCAR-5 = assay: NCI-60 SRB growth inhibition: OVCAR-5; assay type: cell-based, human; conditions: OVCAR-5, Ovarian cancer, 48 hours treatment; for CC50: Homo sapiens, read-out: LC50 (the source's name)
NCI-H322M = assay: NCI-60 SRB growth inhibition: NCI-H322M; assay type: cell-based, human; conditions: Non-small cell lung cancer, 48 hours treatment
K-562 = assay: NCI-60 SRB growth inhibition: K-562; assay type: cell-based, human; conditions: K-562, Leukemia, 48 hours treatment; for CC50: Homo sapiens, K562, read-out: LC50 (the source's name)
ABL1(F317I) = target: T1, ABL1(F317I) (Homo sapiens, UniProt P00519, F317I); assay: Kinase binding screening: ABL1(F317I); conditions: 10 μM compound, phosphorylated form, read-out: B-POC (binding percentage of control)
T1 construct: purchased Ambit Bioscience (assay service)
Method: (§1) Biotinylated kinase ligand was immobilized onto streptavidin coated magnetic beads and washed with blocking buffer. The liganded beads were then incubated with DNA-tagged kinase in the presence of test compound for 1 h at room temperature. Binding reactions were carried out in 20% Seablock, 0.17×PBS, 0.005% Tween 20, 6 mM DTT, in a final volume of 0.04 mL. Beads were then washed with wash buffer (PBS, 0.05% Tween 20), and then incubated with elution buffer (PBS, 0.05% Tween […] non-biotinylated kinase ligand) and eluted. The kinase concentration in the eluate was then measured by quantitative PCR. […] The results of this single dose screening are reported in the form of binding percentage of control (B-POC) which is defined as follows:
(§2) [formula] The negative control signal is obtained by the vehicle and corresponds to B-POC=100%. The positive signal control is detected by a binding positive compound and is B-POC 0%. The B-POC results are the average of duplicate measurements. Only interactions with […] were considered significant and thus used for calculating the selectivity scores (Table 1) of the test compounds as follows:
(§3) [formula] […] The Kd is then calculated according to the following equation:
(§4) [formula] hill slope=−1. A non-linear least square fit with the Levenberg-Marquardt algorithm was implemented to fit the curves (FIG. 3). […]

HS 578T = assay: NCI-60 SRB growth inhibition: HS 578T; assay type: cell-based, human; conditions: Breast cancer, 48 hours treatment; for CC50: Homo sapiens, read-out: LC50 (the source's name)
CSNK1D = target: T2, CSNK1D (Homo sapiens, UniProt P48730); assay: Kinase binding screening: CSNK1D; conditions: 10 μM compound, read-out: B-POC (binding percentage of control)
T2 construct: purchased Ambit Bioscience (assay service)
Method: as §1, §2, §3
[formula] hill slope=−1. A non-linear least square fit with the Levenberg-Marquardt algorithm was implemented to fit the curves (FIG. 3). Kinase binding assays were performed by Ambit Bioscience (San Diego, Calif., USA).
The results of kinase binding assay are shown in Table 1, which includes the B-POC values of 10 μM of compounds 4, 15, and 16 against the most sensitive kinases tested within this binding experiment. […] Kinases within the same subfamily are highlighted. […] Both the B-POC and Kd values are the average of duplicate measurements.
J. et al. Bioorganic and Medicinal Chemistry Letters 2009, 19, 1206-1209; Chao, Q. et al. Journal of Medicinal Chemistry 2009, 52, 7808-7816.). A single dose of 10 μM was chosen to allow for detecting kinases able to bind to the test compounds. In this binding assay, a set of 243 kinases were included. […]

HL-6O(TB) = assay: NCI-60 SRB growth inhibition: HL-6O(TB); assay type: cell-based, human; conditions: Leukemia, 48 hours treatment
CCRF-CEM = assay: NCI-60 SRB growth inhibition: CCRF-CEM; assay type: cell-based, human; conditions: Leukemia, 48 hours treatment
MDA-MB-468 [1] = assay: Annexin V assay, MDA-MB-468 cells; assay type: cell-based, human; conditions: MDA-MB-468, higher doses, within 24 hours
ABL1(F317L) = target: T3, ABL1(F317L) (Homo sapiens, UniProt P00519, F317L); assay: Kinase binding screening: ABL1(F317L); conditions: 10 μM compound, phosphorylated form, read-out: B-POC (binding percentage of control)
T3 construct: purchased Ambit Bioscience (assay service)
Method: as §1, §2, §3, §4

MDA-MB-468 [2] = assay: Cell cycle analysis of MDA-MB-468 cells; assay type: cell-based, human; conditions: MDA-MB-468, within 24 hours

T2 sequence (P48730 whole entry): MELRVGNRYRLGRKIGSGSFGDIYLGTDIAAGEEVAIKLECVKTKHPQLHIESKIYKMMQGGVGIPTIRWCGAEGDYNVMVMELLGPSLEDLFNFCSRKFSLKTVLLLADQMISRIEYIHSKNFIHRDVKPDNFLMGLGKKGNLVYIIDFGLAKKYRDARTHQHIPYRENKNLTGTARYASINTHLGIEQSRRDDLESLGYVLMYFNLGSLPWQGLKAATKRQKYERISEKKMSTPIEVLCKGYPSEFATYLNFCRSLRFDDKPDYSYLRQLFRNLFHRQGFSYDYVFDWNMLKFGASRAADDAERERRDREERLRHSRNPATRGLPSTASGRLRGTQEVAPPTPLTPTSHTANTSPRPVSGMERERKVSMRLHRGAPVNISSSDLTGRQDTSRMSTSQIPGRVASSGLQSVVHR
T1 sequence (P00519 whole entry F317I): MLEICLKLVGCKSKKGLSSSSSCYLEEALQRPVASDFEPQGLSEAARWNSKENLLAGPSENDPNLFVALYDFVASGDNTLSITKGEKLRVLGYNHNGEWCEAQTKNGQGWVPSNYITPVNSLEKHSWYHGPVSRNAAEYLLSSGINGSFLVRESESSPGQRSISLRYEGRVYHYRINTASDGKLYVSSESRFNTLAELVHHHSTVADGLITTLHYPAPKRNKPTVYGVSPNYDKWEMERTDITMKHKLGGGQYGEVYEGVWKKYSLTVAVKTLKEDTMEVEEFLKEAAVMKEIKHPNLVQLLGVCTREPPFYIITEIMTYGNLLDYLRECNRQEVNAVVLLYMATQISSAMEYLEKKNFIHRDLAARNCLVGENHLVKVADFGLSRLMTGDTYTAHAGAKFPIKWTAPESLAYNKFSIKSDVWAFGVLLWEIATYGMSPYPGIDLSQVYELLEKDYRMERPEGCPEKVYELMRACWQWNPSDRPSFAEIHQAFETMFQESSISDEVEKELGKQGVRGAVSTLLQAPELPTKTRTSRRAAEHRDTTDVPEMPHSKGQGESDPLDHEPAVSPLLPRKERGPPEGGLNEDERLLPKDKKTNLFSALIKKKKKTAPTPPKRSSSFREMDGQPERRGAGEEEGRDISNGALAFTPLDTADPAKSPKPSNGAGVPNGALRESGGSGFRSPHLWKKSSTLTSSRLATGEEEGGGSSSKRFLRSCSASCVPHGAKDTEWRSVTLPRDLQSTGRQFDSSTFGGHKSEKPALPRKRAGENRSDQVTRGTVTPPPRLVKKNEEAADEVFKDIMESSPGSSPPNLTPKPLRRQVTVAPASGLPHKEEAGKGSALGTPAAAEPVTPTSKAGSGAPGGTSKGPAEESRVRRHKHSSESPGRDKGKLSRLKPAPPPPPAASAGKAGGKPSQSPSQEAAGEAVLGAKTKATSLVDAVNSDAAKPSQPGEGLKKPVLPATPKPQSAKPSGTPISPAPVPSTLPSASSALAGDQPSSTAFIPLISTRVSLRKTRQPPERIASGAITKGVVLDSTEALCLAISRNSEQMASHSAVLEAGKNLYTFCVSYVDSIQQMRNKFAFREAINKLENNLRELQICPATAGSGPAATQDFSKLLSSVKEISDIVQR
T3 sequence (P00519 whole entry F317L): as the sequence (P00519 whole entry F317I) above, with I317L counted along it

Compound	TGI (HOP-92) [µM]	CC50 (OVCAR-5) [µM]	TGI (OVCAR-5) [µM]	TGI (NCI-H322M) [µM]	CC50 (K-562) [µM]	TGI (K-562) [µM]	remaining activity at 10 µM (ABL1(F317I)) [%]	TGI (HS 578T) [µM]	CC50 (HS 578T) [µM]	remaining activity at 10 µM (CSNK1D) [%]	TGI (HL-6O(TB)) [µM]	TGI (CCRF-CEM) [µM]	apoptosis (Annexin V) (MDA-MB-468 [1])	remaining activity at 10 µM (ABL1(F317L)) [%]	cell cycle effect (MDA-MB-468 [2])
c1ccc(Cc2cnc(N3CCN(c4ncnc5ccccc45)CC3)nc2)cc1 [Compound 4, 4-(4-(5-benzylpyrimidin-2-yl)piperazin-1-yl)quinazoline]	24.20	> 100	69.80	>100	> 100	>100	30	54.80	> 100	26	41.80	64.40			
CCc1cnc(N2CCN(C(=O)c3ccc(CNc4ncnc5ccccc45)cc3)CC2)nc1 [Compound 15, (4-(5-ethylpyrimidin-2-yl)piperazin-1-yl)(4-((quinazolin-4-ylamino)methyl)phenyl)methanone]	80.09	> 100	>100	>100	> 100	>100		>100	> 100	23	38.60	60.90	a significant fraction of the tumor cells undergo apoptosis	6.8	arrest at the G2/M phase of the cell cycle
O=C(c1cccc(Nc2ncnc3ccccc23)c1)N1CCN(c2ncc(Cc3ccccc3)cn2)CC1 [Compound 16, (4-(5-benzylpyrimidin-2-yl)piperazin-1-yl)(3-(quinazolin-4-ylamino)phenyl)methanone]		> 100	5.75	4.79	> 100	2.23	20	7.41	> 100	22	1.54				

Reference: patent US8609672B2, “Piperazinylpyrimidine analogues as protein kinase inhibitors” (University of the Pacific, priority 2010, dated 2013)
